According to patent US9133168B2, “Pyrimidine derivatives, preparation thereof, and pharmaceutical use thereof as akt(pkb) phosphorylation inhibitors” (SANOFI, priority 2010, dated 2015):

System: AKT protein phosphorylated on serine 473 (P-AKT-S473) in PC3 human prostate carcinoma cells
Assay: pAKT expression in PC3 human prostate carcinoma cells, MSD Multi-spot Biomarker detection (Test A)
Assay type: cell-based
Details: 1 to 2 h incubation, P-AKT-S473, absolute IC50, mean of two independent experiments
Procedure, shortened: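 Lysate pAKT-S473 measured by electrochemiluminescent sandwich immunoassay; inhibition versus cell-free background and DMSO-only wells, IC50 averaged over two experiments.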

Row | Compound | IC50 (PC3 cells) | IC50 (Homo sapiens, PC-3, PC3 cells)
1 | O=C(Cc1nc(N2CCOC(CF)C2)cc(=O)[nH]1)Nc1ccc(F)cc1 (single isomer, unassigned; (+)) [Example 4b, (+)-N-(4-fluorophenyl)-2-[4-(2-fluoromethylmorpholin-4-yl)-6-oxo-1,6-dihydropyrimidin-2-yl]acetamide] | 118 nM | –
2 | CN1CCN(Cc2cccc3c2CCN3C(=O)Cc2nc(N3CCOCC3)cc(=O)n2C)CC1 [Example 20d, 3-methyl-2-(2-{4[(4-methylpiperazin-1-yl)methyl]-2,3-dihydro-1H-indol-1-yl}-2-oxoethyl)-6-(morpholin-4-yl)pyrimidin-4(3H)-one] | – | 520 nM
3 | CC1Cc2cc(F)ccc2N1C(=O)Cc1nc(N2CCOCC2)c(F)c(=O)[nH]1 (stereo not drawn) [Example 7a, 5-fluoro-2-[2-((−)-5-fluoro-2-methyl-2,3-dihydroindol-1-yl)-2-oxoethyl]-6-morpholin-4-yl-3H-pyrimidin-4-one] | 3 nM | –
4 | Cc1cc(-c2cc(=O)[nH]c(CC(=O)N3CCc4c(F)cccc43)n2)ccn1 [Example 23b, 2-[2-(4-fluoro-2,3-dihydroindol-1-yl)-2-oxoethyl]-6-(2-methylpyridin-4-yl)-3H-pyrimidin-4-one] | – | 244 nM
5 | C[C@@H]1Cc2ccccc2N1C(=O)Cc1nc(N2CCOCC2)cc(=S)n1C [Example 5e, 1-((R)-2-methyl-2,3-dihydroindol-1-yl)-2-(1-methyl-4-morpholin-4-yl-6-thioxo-1,6-dihydropyrimidin-2-yl)ethanone] | – | 71 nM
6 | CS(=O)(=O)N1CCN(Cc2cccc3c2CCN3C(=O)Cc2nc(N3CCOCC3)cc(=O)[nH]2)CC1 [Example 17d, 2-[2-(4-{[4-(methylsulfonyl)piperazin-1-yl]methyl}-2,3-dihydro-1H-indol-1-yl)-2-oxoethyl]-6-(morpholin-4-yl)pyrimidin-4(3H)-one] | – | 259 nM
7 | O=C(Cc1nc(N2CCOCC2)cc(=O)[nH]1)N1CC2(CC2)c2ccccc21 [Example 1d, 6-(morpholin-4-yl)-2-[2-oxo-2-(spiro[cyclopropan-1,3′-indol]-1′(2′H)-yl)ethyl]pyrimidin-4(3H)-one] | – | 26 nM
8 | CCCN1CCCC(c2cccc3c2CCN3C(=O)Cc2nc(N3CCOCC3)cc(=O)[nH]2)C1 (stereo not shown) [Example 7d, 6-(morpholin-4-yl)-2-{2-oxo-2-[4-(1-propylpiperidin-3-yl)-2,3-dihydro-4H-indol-1-yl]ethyl}pyrimidin-4(3H)-one] | – | 102 nM
9 | CC(C(=O)N1CCc2c(F)cccc21)c1nc(N2CCOCC2)c(F)c(=O)n1C (stereo not shown) [Example 2a, 5-fluoro-2-[1-(4-fluoro-2,3-dihydro-1H-indol-1-yl)-1-oxopropan-2-yl]-3-methyl-6-(morpholin-4-yl)pyrimidin-4(3H)-one] | – | 938 nM
10 | CN1CCN(Cc2cccc3c2CCN3C(=O)Cc2nc(N3CCOCC3)cc(=O)[nH]2)CC1 [Example 18d, 2-(2-{4-[(4-methylpiperazin-1-yl)methyl]-2,3-dihydro-1H-indol-1-yl}-2-oxoethyl)-6-(morpholin-4-yl)pyrimidin-4(3H)-one] | – | 272 nM
11 | CC1Cc2cc(F)c(F)cc2N1C(=O)Cc1nc(N2CCOCC2)cc(=O)[nH]1 (stereo not shown) [Example 22c] | 2 nM | –
12 | O=C(Cc1nc(N2CCOCC2)cc(=O)[nH]1)N1CC2(CCOCC2)c2ccccc21 [Example 21d, 6-(morpholin-4-yl)-2-[2-oxo-2-(2′,3′,5′,6′-tetrahydrospiro[indole-3,4′-pyran]-1(2H)-yl)ethyl]pyrimidin-4(3H)-one] | – | 155 nM
13 | Cn1c(CC(=O)N2CC(C)(C)c3c(Cl)cccc32)nc(N2CCOCC2)cc1=O [Example 4c, 2-[2-(4-chloro-3,3-dimethyl-2,3-dihydro-1H-indol-1-yl)-2-oxoethyl]-3-methyl-6-(morpholin-4-yl)pyrimidin-4(3H)-one] | – | 35 nM
14 | CC1Cc2cc(F)ccc2N1C(=O)Cc1nc(N2CCOCC2)cc(=O)n1C (single isomer, unassigned; (-)) [Example 16c, (−)-2-{2-[5-fluoro-2-methyl-2,3-dihydro-1H-indol-1-yl]-2-oxoethyl}-3-methyl-6-(morpholin-4-yl)pyrimidin-4(3H)-one] | 13 nM | –
15 | CC1CN(c2cc(=O)[nH]c(CC(=O)Nc3ccc(F)cc3)n2)CCO1 (stereo not shown) [Example 1b, N-(4-fluorophenyl)-2-[4-(2-methylmorpholin-4-yl)-6-oxo-1,6-dihydropyrimidin-2-yl]acetamide] | 26 nM | –

Next, values leading:

Row | IC50 (PC3 cells) | IC50 (Homo sapiens, PC-3, PC3 cells) | Compound
16 | 260 nM | – | CC(F)(C(=O)N1CCc2c(F)cccc21)c1nc(N2CCOCC2)cc(=O)[nH]1 (single isomer, unassigned; (+)) [Example 45c, (+)-2-[2-fluoro-1-(4-fluoro-2,3-dihydro-1H-indol-1-yl)-1-oxopropan-2-yl]-6-(morpholin-4-yl)pyrimidin-4(3H)-one]
17 | – | 568 nM | O=C(Cc1nc(N2CCOCC2)c(F)c(=O)[nH]1)N1c2ccccc2C[C@H]1CO [Example 39a, 5-Fluoro-2-[2-((−)-2-hydroxymethyl-2,3-dihydroindol-1-yl)-2-oxoethyl]-6-morpholin-4-yl-3H-pyrimidin-4-one]
18 | 310 nM | – | CC1Cc2c(ccc(F)c2F)N1C(=O)Cc1nc(N2CCOCC2)c(F)c(=O)n1C (stereo not drawn) [Example 24a, 5-fluoro-2-[2-((−)-4,5-difluoro-2-methyl-2,3-dihydroindol-1-yl)-2-oxoethyl]-3-methyl-6-morpholin-4-yl-3H-pyrimidin-4-one]
19 | 114 nM | – | CC1Cc2cc(F)c(F)cc2N1C(=O)Cc1nc(N2CCOCC2)cc(=O)n1C (stereo not drawn) [Example 24c, 2-{2-[(+)-5,6-difluoro-2-methyl-2,3-dihydro-1H-indol-1-yl]-2-oxoethyl}-3-methyl-6-(morpholin-4-yl)pyrimidin-4(3H)-one]
20 | 5 nM | – | O=C(Cc1nc(N2CCOCC2)cc(=O)[nH]1)N1c2ccccc2CC1c1ccccc1 (single isomer, unassigned; (-)) [Example 25d, (−)-6-(morpholin-4-yl)-2-{2-oxo-2-[2-phenyl-2,3-dihydro-1H-indol-1-yl]ethyl}pyrimidin-4(3H)-one]
21 | 240 nM | – | O=C(Cc1nc(N2CCOC(CO)C2)cc(=O)[nH]1)N1CCc2c(Cl)cccc21 (single isomer, unassigned; (+)) [Example 26b, (+)-2-[2-(4-Chloro-2,3-dihydroindol-1-yl)-2-oxoethyl]-6-(2-hydroxymethylmorpholin-4-yl)-3H-pyrimidin-4-one]
22 | 36 nM | – | CC1Cc2c(Br)cccc2N1C(=O)Cc1nc(N2CCOCC2)cc(=O)n1C (single isomer, unassigned; (+)) [Example 31c, (+)-2-{2-[4-bromo-2-methyl-2,3-dihydro-1H-indol-1-yl]-2-oxoethyl}-3-methyl-6-(morpholin-4-yl)pyrimidin-4(3H)-one]
23 | – | 44 nM | C[C@H]1Cc2ccccc2N1C(=O)Cc1nc(N2CCOC(CF)C2)cc(=O)[nH]1 (stereo partly drawn) [Example 30b, 6-(2-fluoromethylmorpholin-4-yl)-2-[2-((S)-2-methyl-2,3-dihydroindol-1-yl)-2-oxoethyl]-3H-pyrimidin-4-one]
24 | – | 56 nM | C[C@H]1Cc2ccccc2N1C(=O)Cc1nc(N2CCOCC2)c(Br)c(=O)[nH]1 [Example 37a, 5-bromo-2-[2-((S)-2-methyl-2,3-dihydroindol-1-yl)-2-oxoethyl]-6-morpholin-4-yl-3H-pyrimidin-4-one]
25 | – | 131 nM | Nn1c(CC(=O)N2CCc3ccccc32)nc(N2CCOCC2)cc1=O [Example 41d, 3-amino-2-[2-(2,3-dihydro-1H-indol-1-yl)-2-oxoethyl]-6-(morpholin-4-yl)pyrimidin-4(3H)-one]
